In paper PMC3384240, “Related bifunctional restriction endonuclease-methyltransferase triplets: TspDTI, Tth111II/TthHB27I and TsoI with distinct specificities” (BMC Molecular Biology, 2012):

Biological target: T1, TspDTI (Thermus sp. DT, UniProt A8QN47)
T1 construct: recombinant from E. coli DH11S [pRZ-TspDTI], one extra Ala codon (GCG) after the start Met; native enzyme from Thermus sp; DT also purified; monomer; N-terminus […]
Assay: lambda DNA cleavage, agarose gel
Format: biochemical
Settings: Mg2+ restriction buffer, 70 C, 30 min, allosteric activator (site not established)

T1 sequence (A8QN47 entry or part of it): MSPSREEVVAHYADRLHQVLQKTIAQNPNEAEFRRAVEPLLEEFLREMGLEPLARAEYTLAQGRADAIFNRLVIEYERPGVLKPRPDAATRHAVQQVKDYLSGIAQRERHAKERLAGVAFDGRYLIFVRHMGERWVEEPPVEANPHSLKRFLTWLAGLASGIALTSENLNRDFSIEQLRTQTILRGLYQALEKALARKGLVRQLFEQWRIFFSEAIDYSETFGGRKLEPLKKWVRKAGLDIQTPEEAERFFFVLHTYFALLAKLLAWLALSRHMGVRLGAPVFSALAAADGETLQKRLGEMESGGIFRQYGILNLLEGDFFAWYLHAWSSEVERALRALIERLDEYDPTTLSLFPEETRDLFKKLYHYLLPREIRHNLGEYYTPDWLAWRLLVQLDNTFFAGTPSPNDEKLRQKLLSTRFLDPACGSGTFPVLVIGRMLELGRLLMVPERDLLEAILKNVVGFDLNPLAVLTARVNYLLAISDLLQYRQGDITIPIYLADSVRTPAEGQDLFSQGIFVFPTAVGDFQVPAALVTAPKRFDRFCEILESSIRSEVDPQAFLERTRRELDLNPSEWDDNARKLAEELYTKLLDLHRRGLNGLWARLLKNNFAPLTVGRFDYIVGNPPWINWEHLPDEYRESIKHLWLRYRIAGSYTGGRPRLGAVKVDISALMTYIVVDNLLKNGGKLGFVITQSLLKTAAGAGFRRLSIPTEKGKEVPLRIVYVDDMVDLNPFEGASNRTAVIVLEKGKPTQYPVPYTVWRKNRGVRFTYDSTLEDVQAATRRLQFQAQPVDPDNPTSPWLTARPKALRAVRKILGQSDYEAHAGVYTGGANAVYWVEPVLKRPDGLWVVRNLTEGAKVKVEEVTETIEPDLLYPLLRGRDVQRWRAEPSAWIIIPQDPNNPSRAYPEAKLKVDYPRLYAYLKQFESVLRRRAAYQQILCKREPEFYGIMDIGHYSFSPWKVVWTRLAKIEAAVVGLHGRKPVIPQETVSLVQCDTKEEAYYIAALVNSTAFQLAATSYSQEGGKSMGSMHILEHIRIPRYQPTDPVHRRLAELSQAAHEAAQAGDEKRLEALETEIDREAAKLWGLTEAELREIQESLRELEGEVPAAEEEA

`C[S+](CC[C@H](N)C(=O)O)C[C@H]1O[C@@H](n2cnc3c(N)ncnc32)[C@H](O)[C@@H]1O` (some centres unmarked) [SAM] was tested, and the “lambda DNA cleavage, agarose gel” value (stimulates REase at 50 uM SAM, also methyl donor of the MTase activity (200 uM)) was “is stimulated equally by both SAM and its analogue - SIN”.
In the case of `Nc1ncnc2c1ncn2[C@@H]1O[C@H](C[C@@H](N)CC[C@H](N)C(=O)O)[C@@H](O)[C@H]1O` [SIN], the “lambda DNA cleavage, agarose gel” value (stimulates REase at 50 uM SIN, SAM analogue, not a methyl donor) is reported as “is stimulated equally by both SAM and its analogue - SIN”.
